Assay results reported in US20120202840A1, “Use of Flubendazole and Vinca Alkaloids for Treatment of Hematological Diseases” (priority 2009, published 2012).
Read-outs that look alike come from different tables or passages of the source.

Experiments:
OCI-AML2 cells [1] = assay: MTS cell growth and viability assay, OCI-AML2; assay type: cell-based; conditions: OCI-AML2, 72 h, MTS assay
Experimental: (A) OCI-AML2 cells were treated for 72 h with increasing concentrations of benzimidazoles. After incubation, cell growth and viability was measured by the MTS assay. Data represent the mean percentage of viable cells ±SD from a representative experiment.
Unless otherwise noted, all media were supplemented with 10% FCS, 100 units/mL of streptomycin and 100 μg/mL of penicillin (all from Hyclone, Logan, Utah). Cells were incubated in a humidified air atmosphere containing 5% CO2 at 37° C.
Cell growth and viability was measured using the 3-(4,5-dimethylthiazol-2-yl)-5-(3-carboxymethoxyphenyl)-2-(4-sulfophenyl)-2H-tetrazolium inner salt (MTS) reduction assay (Promega, Madison, Wis.) according to the manufacture's protocol and as previously described^25. Cells were seeded in 96 well plates and treated with drug for 72 h. Optical density (OD) was measured at 490 nm.

Primary AML cell samples = assay: Methylcellulose colony forming assay; assay type: cell-based, human; conditions: primary AML samples (n=3), colonies counted 7 days after plating
Experimental: (C) Primary AML cell samples (n=3) were plated in a methylcellulose colony forming assay with increasing concentrations of flubendazole. Colonies were counted 7 days after plating and normalized to cultures treated with buffer alone. Data represent the mean±SD from 3 independent experiments performed in duplicate.
Primary human acute myeloid leukemia (AML) samples were isolated from the peripheral blood of consenting AML patients, who had at least 80% malignant cells among the mononuclear cells in their peripheral blood and cultured at 37° C. in IMDM, 10% fetal calf serum, 100 units/mL of streptomycin and 100 μg/mL of penicillin. The collection and use of human tissue for this study was approved by the local ethics review board (University Health Network, Toronto, ON, Canada).

OCI-AML2 cells [2] = tested on: OCI-AML2 cells
Experimental: Sub-lethally irradiated SCID mice were injected subcutaneously with OCI-AML2 cells (n=20; 10 per group). After implantation, mice were treated with 50 mg/kg flubendazole (A), 20 mg/kg flubendazole (B), or vehicle control by intraperitoneal injection daily. Tumor volume was measured over time. After 16 days (20 mg/kg dose) or 18 days (50 mg/kg dose), mice were sacrificed and tumors were excised, measured and weighted.
Sub-lethally irradiated SCID mice were injected subcutaneously with OCI-AML2 cells (n=40; 10 per group). […] After 16 (C) or 18 (D) days, mice were sacrificed and tumors were excised, measured and weighted. Data represent the mean±SD tumor weight.
Sub-lethally irradiated SCID mice were injected subcutaneously in the left flank with leukemia OCI-AML2 (2.0×10^6) or myeloma OPM2 (1.0×10^7) cells. Mice were then randomly assigned to receive flubendazole (in 0.9% NaCl and 0.01% tween-80) or vehicle control (0.9% NaCl and 0.01% tween-80) intraperitoneally. […] Tumor volumes (tumor length×width^2×0.5236) were monitored daily using calipers. At the end of the experiment (16-18 days), mice were sacrificed, tumors excised and tumor volume and weight measured. All animal studies were carried out according to the regulations of the Canadian Council on Animal Care and with the approval of the local ethics review board.

OCI-AML2 cells [3] = assay: Radioactive glucose uptake assay; assay type: cell-based; conditions: concentrations up to 4.0 μM, 16 hours
Experimental: (A) OCI-AML2 cells were incubated with increasing concentrations of flubendazole for 16 h and the uptake of 3H-deoxy-D-glucose was measured as in the materials and methods. Data represent the mean±SD glucose uptake. A representative experiment is shown.
The effect of flubendazole on the uptake of 2-deoxy-D-glucose in OCI-AML2 cells was performed using a radioactive glucose uptake assay as described by Wood et al^27. […] Uptake of 2-deoxy-D-glucose was initiated by the addition of 10 μM 2-deoxy-D-glucose and 1 μCi/mL 2-[^3H]deoxy-D-glucose in the HEPES-buffered saline solution at room temperature. After 5 min of incubation, 2-deoxy-D-glucose uptake was terminated by rinsing the cells three times with a 25 mM ice-cold glucose solution, followed by cell disruption with 0.05 N NaOH. Protein concentration was measured by the modified Bradford protein assay and cell-associated radioactivity was determined by scintillation counting. The mean counts per minute are expressed as picomoles/min/mg protein.

OCI-AML2 cells [4] = assay: Cell cycle analysis (PI, flow cytometry), OCI-AML2; assay type: cell-based; conditions: OCI-AML2, 1.0 μM, 24 h
Experimental: (§1) OCI-AML2 cells (A) or PPC-1 cells (B) were incubated with 1.0 μM flubendazole or buffer control for 24 h. Cells were then stained with PI and the DNA content was measured by flow cytometry. A representative figure is shown.
(§2) Cell cycle analysis was performed as described by Mao et al^31. Briefly, OCI-AML2 or PPC-1 cells were harvested, washed with cold PBS and resuspended in PBS and cold absolute ethanol. Cells were then treated with 100 ng/mL of DNase-free RNase A (Invitrogen, Carlsbad, Calif.) at 37° C. for 30 min, washed with cold PBS, resuspended in PBS and incubated with 50 μg/mL of propidium iodine (PI) for 15 min at room temperature in the dark. DNA content was measured by flow cytometry (FACSCalibur, Becton Dickinson, Florida, USA) and analyzed with FlowJo software version 7.0 (TreeStar, Ashland, Oreg.).

PPC-1 cells [5] = assay: Cell cycle analysis (PI, flow cytometry), PPC-1; assay type: cell-based; conditions: PPC-1, 1.0 μM, 24 h
Experimental: as §1, §2

PPC-1 cells [6] = assay: Mitotic catastrophe (multinucleated cells); assay type: cell-based; conditions: 1.0 μM, 24 h
Experimental: (C) PPC-1 cells were treated as above and stained with anti α-tubulin antibody and DAPI, as described in the materials and methods. Cells were imaged by confocal microscopy and the number of multi-nucleated cells was enumerated. Data represent the mean±SD percent of multinucleated cells from a representative experiment *p<0.0001 (unpaired t test). Insert: a representative multi-nucleated cell.
Mitotic catastrophe was measured by enumerating the number of multinucleated cells similar to the method previously described^26. Briefly, cells (5.0×10^5) were fixed and stained as described below. Fields containing 100 cells per treatment group were selected at random and visualized at 20×. A total of 700 cells were scored per treatment condition. A positive score for mitotic catastrophe was given when two or more distinct nuclear lobes were visualized within a single cell.

[7] = sheep, cited from earlier work
[8] = rats, mice and guinea-pigs, cited from earlier work
[9] = rats, up to 150 mg/kg/day for 3 months; cited from earlier work
[10] = OCI-AML2 xenograft, 20 or 50 mg/kg daily intraperitoneally, vs vehicle, p<0.0001
[11] = single dose of 5 mg/kg intravenously

Q: What does the source list for `COC(=O)Nc1nc2ccc(C(=O)c3ccc(F)cc3)cc2[nH]1` [flubendazole]?
A: rank of potency in panel of 8 benzimidazoles (OCI-AML2 cells [1]): most potent; clonogenic growth (Primary AML cell samples): reduced the clonogenic growth; tumor growth (OCI-AML2 cells [2]; [10]): significantly delayed tumor growth; tumor weights (OCI-AML2 cells [2]; [10]): reduced tumor weights; weight loss, behavioral changes or gross organ toxicity (OCI-AML2 cells [2]; mouse, in vivo): no evidence of weight loss, behavioral changes or gross organ toxicity; uptake of 3H-deoxy-D-glucose (OCI-AML2 cells [3]): did not alter glucose uptake; cell cycle (OCI-AML2 cells [4]): arrested cells in the G2 phase; cell cycle (PPC-1 cells [5]): arrested cells in the G2 phase; number of multi-nucleated cells (PPC-1 cells [6]): increased the number of multi-nucleated cells; estimated half life ([7]; after oral administration): 6.5 h; fraction of flubendazole absorbed ([7]; oral): 18%; area under the curve (AUC) ([7]; single dose of 5 mg/kg intravenously, over 36 hours): 22 µM·h; area under the curve (AUC) [7, 11]: 6530 ng·h/mL; toxicity [7, 11]: no toxicity was observed; LD50 ([8]; intraperitoneal administration): > 400 mg/kg; LD50 ([8]; oral administration): > 5000 mg/kg; toxicity [9]: No toxicity was noted
